One experiment has as its system A375 cells. Description: Compounds cellular killing in A375 cancer line (Cell Titer-Glo, 6 days). The following applies: Homo sapiens, A-375, 144 h, 6 days incubation, cell viability by Cell Titer-Glo. In kind it is cell-based, human. On the procedure:
A375 (ATCC, CRL-1619). […] The base medium for A375 is DMEM, high glucose, GlutaMAX™ Supplement (Gibco, 10566024). To make the complete growth medium, fetal bovine serum was added to the base mediumat a final concentration of 10% (Gibco, 10099-141C). The cell line was grown in a humidified 5% CO2 atmosphere at 37° C., and was regularly tested for the presence of mycoplasma with MycoAlert™ PLUS Mycoplasma Detection Kit (Lonza, LT07-710).
(§1) Payload direct killing by compounds 1-1 to 1-22 was assessed in A375 and Calu-6 cancer cell lines. Cells were seeded at 1E3/well (A375) 2E3/well (Calu-6) into 96-well plates (Greiner: 655090), 100 μL/well, and incubated at 37° C., 5% CO2, overnight. Fresh growth medium was added containing varying concentrations of compounds, 50 μL/well, and incubated at 37° C., 5% CO2, for 6 days. The cell viability detected by Cell Titer-Glo (Promega, G7573), 70 μL/well. The plates were allowed to incubate at room temperature for 10 minutes to stabilize the luminescent signal. The plates were analyzed with a microplate reader.

The next experiment concerns Calu-6 cells. Nature of the experiment: Compounds cellular killing in Calu-6 cancer line (Cell Titer-Glo, 6 days). The format is cell-based, human. The following applies: Homo sapiens, Calu-6, 144 h, 6 days incubation, cell viability by Cell Titer-Glo. The protocol:
Calu-6 (ATCC, HTB-56). […] The base medium for Calu-6 is Eagle's Minimum Essential Medium (ATCC, 30-2003). To make the complete growth medium, fetal bovine serum was added to the base mediumat a final concentration of 10% (Gibco, 10099-141C). The cell line was grown in a humidified 5% CO2 atmosphere at 37° C., and was regularly tested for the presence of mycoplasma with MycoAlert™ PLUS Mycoplasma Detection Kit (Lonza, LT07-710).
as §1

14 molecules from US20260027221A1, “Targeted Pyrrolobenzodiazapine Conjugates” (BeOne Medicines I GmbH, priority 2023, published 2026) can be followed below.

Consider `COc1cc2c(cc1OCCCCCOc1cc3c(cc1OC)C(=O)N1CC4(CC4)C[C@H]1CN3)NC[C@@H]1Cc3ccccc3CN1C2=O` [Compound 1-4, (S)-2-methoxy-3-((5-(((S)-7-methoxy-5-oxo-5,10,11,11a-tetrahydro-1H,3H-spiro[benzo[e]pyrrolo[1,2-a][1,4]diazepine-2,1′-cyclopropan]-8-yl)oxy)pentyl)oxy)-6,6a,7,12-tetrahydrobenzo[5,6][1,4]diazepino[1,2-b]isoquinolin-14(5H)-one], for which the results for the EC50 in the experiment with A375 cells and in the experiment with Calu-6 cells were 0.14 nM and 0.077 nM, respectively. Besides, the Emax in the experiment on A375 cells was 90.6%; in the experiment on Calu-6 cells, 94.9%.
The matching figures for `COc1cc2c(cc1OCCCCCOc1cc3c(cc1OC)C(=O)N1Cc4ccccc4C[C@H]1CN3)N=C[C@@H]1CC3(CC3)CN1C2=O` [Compound 1-2, (S)-2-methoxy-3-((5-(((S)-7-methoxy-5-oxo-5,11a-dihydro-1H,3H-spiro[benzo[e]pyrrolo[1,2-a][1,4]diazepine-2,1′-cyclopropan]-8-yl)oxy)pentyl)oxy)-6,6a,7,12-tetrahydrobenzo[5,6][1,4]diazepino[1,2-b]isoquinolin-14(5H)-one]: 0.118 nM, 0.052 nM, 98% and 97.6%.
For `COc1cc2c(cc1OCC13CC(COc4cc5c(cc4OC)C(=O)N4CC6(CC6)C[C@H]4C=N5)(C1)C3)N=C[C@@H]1Cc3ccccc3CN1C2=O` [Compound 1-11, (S)-2-methoxy-3-((3-((((S)-7-methoxy-5-oxo-5,11a-dihydro-1H,3H-spiro[benzo[e]pyrrolo[1,2-a][1,4]diazepine-2,1′-cyclopropan]-8-yl)oxy)methyl)bicyclo[1.1.1]pentan-1-yl)methoxy)-7,12-dihydrobenzo[5,6][1,4]diazepino[1,2-b]isoquinolin-14(6aH)-one] the same measures were 6.11 nM, 0.34 nM, 99.9% and 99.4%.
Regarding `C=C1CCN2C(=O)c3cc(OC)c(OCCCCCOc4cc5c(cc4OC)C(=O)N4CC6(CC6)C[C@H]4C=N5)cc3N=C[C@@H]2C1` [Compound 1-7, (S)-7-methoxy-8-((5-(((S)-2-methoxy-8-methylene-12-oxo-6a,7,8,9,10,12-hexahydrobenzo[e]pyrido[1,2-a][1,4]diazepin-3-yl)oxy)pentyl)oxy)-1,11a-dihydro-3H,5H-spiro[benzo[e]pyrrolo[1,2-a][1,4]diazepine-2,1′-cyclopropan]-5-one], in the experiment with A375 cells, the EC50 worked out at 0.102 nM and the Emax is 89%. Also, in the experiment on Calu-6 cells, a half-maximal effect (EC50) was put at 0.017 nM and the Emax amounted to 97.7%.
For the molecule `COc1cc2c(cc1OCc1cccc(COc3cc4c(cc3OC)C(=O)N3CC5(CC5)C[C@H]3CN4)c1)N=C[C@@H]1CC3(CC3)CN1C2=O` [Compound 1-9, (S)-7-methoxy-8-((3-((((S)-7-methoxy-5-oxo-5,11a-dihydro-1H,3H-spiro[benzo[e]pyrrolo[1,2-a][1,4]diazepine-2,1′-cyclopropan]-8-yl)oxy)methyl)benzyl)oxy)-1,10,11,11a-tetrahydro-3H,5H-spiro[benzo[e]pyrrolo[1,2-a][1,4]diazepine-2,1′-cyclopropan]-5-one], in the experiment with A375 cells, the EC50 is 0.01 nM and the Emax was found to be 99.9%. Also, in the experiment on Calu-6 cells, the 50% effective concentration (EC50) is 0.002 nM and the Emax was 99.7%.
`COc1cc2c(cc1OCCCOc1cc3c(cc1OC)C(=O)N1CC4(CC4)C[C@H]1CN3)N=C[C@@H]1Cc3ccccc3CN1C2=O` [Compound 1-15, (S)-2-methoxy-3-(3-(((S)-7-methoxy-5-oxo-5,10,11,11a-tetrahydro-1H,3H-spiro[benzo[e]pyrrolo[1,2-a][1,4]diazepine-2,1′-cyclopropan]-8-yl)oxy)propoxy)-7,12-dihydrobenzo[5,6][1,4]diazepino[1,2-b]isoquinolin-14(6aH)-one]: in the experiment with A375 cells, the EC50 was 0.134 nM and the Emax was 99.5%. In addition, in the experiment on Calu-6 cells, a half-maximal effect (EC50) was put at 0.045 nM and the Emax came out at 99.7%.
In the case of `COc1cc2c(cc1OCCCCCOc1cc3c(cc1OC)C(=O)N1CC4(CC4)C[C@H]1CN3)N=C[C@@H]1Cc3ccccc3CN1C2=O` [Compound 1-3, (S)-2-methoxy-3-((5-(((S)-7-methoxy-5-oxo-5,10,11,11a-tetrahydro-1H,3H-spiro[benzo[e]pyrrolo[1,2-a][1,4]diazepine-2,1′-cyclopropan]-8-yl)oxy)pentyl)oxy)-7,12-dihydrobenzo[5,6][1,4]diazepino[1,2-b]isoquinolin-14(6aH)-one], in the experiment with A375 cells, a half-maximal effect (EC50) was put at 0.002 nM and the Emax is 99.9%. In the experiment with Calu-6 cells, this molecule yielded an EC50 of 0.001 nM and an Emax of 99.3%.
For `COc1cc2c(cc1OCC13CC(COc4cc5c(cc4OC)C(=O)N4Cc6ccccc6C[C@H]4CN5)(C1)C3)N=C[C@@H]1CC3(CC3)CN1C2=O` [Compound 1-12, (S)-2-methoxy-3-((3-((((S)-7-methoxy-5-oxo-5,11a-dihydro-1H,3H-spiro[benzo[e]pyrrolo[1,2-a][1,4]diazepine-2,1′-cyclopropan]-8-yl)oxy)methyl)bicyclo[1.1.1]pentan-1-yl)methoxy)-6,6a,7,12-tetrahydrobenzo[5,6][1,4]diazepino[1,2-b]isoquinolin-14(5H)-one] the same measures were 297 nM, 97.5%, 108 nM and 99.4%.
The matching figures for `COc1ccc(C2=CN3C(=O)c4cc(OC)c(OCCCCCOc5cc6c(cc5OC)C(=O)N5CCC7(CC7)C[C@H]5C=N6)cc4NC[C@@H]3C2)cc1` [Compound 1-6, (S)-2-methoxy-3-((5-(((S)-7-methoxy-2-(4-methoxyphenyl)-5-oxo-5,10,11,11a-tetrahydro-1H-benzo[e]pyrrolo[1,2-a][1,4]diazepin-8-yl)oxy)pentyl)oxy)-6a,7,9,10-tetrahydro-12H-spiro[benzo[e]pyrido[1,2-a][1,4]diazepine-8,1′-cyclopropan]-12-one]: 0.067 nM, 97.5%, 0.033 nM and 97.6%.
For `COc1cc2c(cc1OCCCOc1cc3c(cc1OC)C(=O)N1CC4(CC4)C[C@H]1C=N3)N=C[C@@H]1Cc3ccccc3CN1C2=O` [Compound 1-14, (S)-2-methoxy-3-(3-(((S)-7-methoxy-5-oxo-5,11a-dihydro-1H,3H-spiro[benzo[e]pyrrolo[1,2-a][1,4]diazepine-2,1′-cyclopropan]-8-yl)oxy)propoxy)-7,12-dihydrobenzo[5,6][1,4]diazepino[1,2-b]isoquinolin-14(6aH)-one] the same measures were 0.033 nM, 98.9%, 0.01 nM and 99.2%.
Take `COc1cc2c(cc1OCc1cccc(COc3cc4c(cc3OC)C(=O)N3CC5(CC5)C[C@H]3C=N4)n1)N=C[C@@H]1CC3(CC3)CN1C2=O` [Compound 1-17, (11aS,11a″S)-8,8″-((pyridine-2,6-diylbis(methylene))bis(oxy))bis(7-methoxy-1,11a-dihydro-3H,5H-spiro[benzo[e]pyrrolo[1,2-a][1,4]diazepine-2,1′-cyclopropan]-5-one)]: in the experiment on A375 cells, the EC50 is 0.017 nM and the Emax came to 99.9%. Besides, in the experiment with Calu-6 cells, the EC50 came out at 0.005 nM and the Emax stood at 99.7%.
For `COc1cc2c(cc1OCc1cc(O)cc(COc3cc4c(cc3OC)C(=O)N3CC5(CC5)C[C@H]3C=N4)c1)N=C[C@@H]1CC3(CC3)CN1C2=O` [Compound 1-18, (11aS,11a″S)-8,8″-(((5-hydroxy-1,3-phenylene)bis(methylene))bis(oxy))bis(7-methoxy-1,11a-dihydro-3H,5H-spiro[benzo[e]pyrrolo[1,2-a][1,4]diazepine-2,1′-cyclopropan]-5-one)] the same measures were 0.398 nM, 80.3%, 0.126 nM and 89.8%.
The matching figures for `C=C1C[C@H]2C=Nc3cc(OCCN(C)CCOc4cc5c(cc4OC)C(=O)N4CC(=C)C[C@H]4C=N5)c(OC)cc3C(=O)N2C1` [Compound 1-22, (11aS,11a′S)-8,8′-(((methylazanediyl)bis(ethane-2,1-diyl))bis(oxy))bis(7-methoxy-2-methylene-1,2,3,11a-tetrahydro-5H-benzo[e]pyrrolo[1,2-a][1,4]diazepin-5-one)]: 5.5 nM, 97.3%, 1.3 nM and 99.2%.
For `COc1cc2c(cc1OCCOCCOc1cc3c(cc1OC)C(=O)N1CC4(CC4)C[C@H]1C=N3)N=C[C@@H]1Cc3ccccc3CN1C2=O` [Compound 1-5, (S)-2-methoxy-3-(2-(2-(((S)-7-methoxy-5-oxo-5,11a-dihydro-1H,3H-spiro[benzo[e]pyrrolo[1,2-a][1,4]diazepine-2,1′-cyclopropan]-8-yl)oxy)ethoxy)ethoxy)-7,12-dihydrobenzo[5,6][1,4]diazepino[1,2-b]isoquinolin-14(6aH)-one], in the experiment on A375 cells, the EC50 is greater than 1 nM and the Emax stood at 39.2%. In the experiment with Calu-6 cells, this molecule yielded an EC50 of 0.165 nM and an Emax of 90.8%.
